Measured values reported in paper PMC11091967, “Silicon-Rhodamine Functionalized Evocalcet Probes Potently and Selectively Label Calcium Sensing Receptors In Vitro, In Vivo, and Ex Vivo” (ACS Pharmacology & Translational Science, 2024).
Read-outs that look alike come from different tables or passages of the source.

Columns and labels:
[1] = Photophysical characterization; type: physicochemical; design: λex / λem: unit not given here
human CaSR [2] = biological target: T1, human CaSR (Homo sapiens, UniProt P41180); assay: In vitro labeling of CaSR expressing (HCAR) and control (CCL39) cells, fluorescence microscopy; type: cell-based
T1 construct: host or cells: CCL39 hamster lung fibroblasts stably transfected (HCAR), Geneticin selection
T1 sequence (P41180 20-1078): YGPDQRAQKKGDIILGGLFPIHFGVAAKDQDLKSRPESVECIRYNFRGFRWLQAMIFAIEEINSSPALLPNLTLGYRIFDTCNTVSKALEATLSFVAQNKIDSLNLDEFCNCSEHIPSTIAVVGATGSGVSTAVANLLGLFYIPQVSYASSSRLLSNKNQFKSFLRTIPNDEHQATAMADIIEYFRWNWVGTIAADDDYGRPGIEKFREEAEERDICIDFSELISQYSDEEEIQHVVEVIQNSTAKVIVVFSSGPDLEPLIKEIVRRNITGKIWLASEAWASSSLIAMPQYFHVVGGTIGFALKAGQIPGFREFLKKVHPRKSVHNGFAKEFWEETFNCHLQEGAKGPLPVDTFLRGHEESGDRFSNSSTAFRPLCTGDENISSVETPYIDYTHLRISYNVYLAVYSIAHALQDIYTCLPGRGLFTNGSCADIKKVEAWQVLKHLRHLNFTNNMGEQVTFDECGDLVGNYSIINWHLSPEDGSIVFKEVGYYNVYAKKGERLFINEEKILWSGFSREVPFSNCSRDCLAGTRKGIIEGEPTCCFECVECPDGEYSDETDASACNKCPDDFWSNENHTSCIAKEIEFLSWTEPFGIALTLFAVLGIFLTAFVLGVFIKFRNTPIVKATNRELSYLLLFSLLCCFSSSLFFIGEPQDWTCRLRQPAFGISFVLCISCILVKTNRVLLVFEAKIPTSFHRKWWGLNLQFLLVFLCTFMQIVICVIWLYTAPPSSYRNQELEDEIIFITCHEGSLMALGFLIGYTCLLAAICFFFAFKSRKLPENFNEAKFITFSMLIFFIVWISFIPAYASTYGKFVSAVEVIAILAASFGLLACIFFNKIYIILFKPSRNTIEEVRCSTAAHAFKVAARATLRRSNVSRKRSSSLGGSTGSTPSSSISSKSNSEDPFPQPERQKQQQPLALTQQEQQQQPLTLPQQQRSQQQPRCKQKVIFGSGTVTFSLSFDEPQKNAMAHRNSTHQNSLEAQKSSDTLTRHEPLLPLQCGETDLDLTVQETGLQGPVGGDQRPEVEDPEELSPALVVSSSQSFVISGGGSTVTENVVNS
Method: HCAR (CaSR+) and CCL39 (CaSR−) cells were kindly obtained from Novartis AG (Basel, Switzerland) and validated in house. The cells were seeded into μ-slide 18 well plates (ibidi, 81816) at a density of 5000 cells per well and were incubated for 24 h under standard culturing conditions. As our preliminary data indicated considerable nonspecific labeling of dying cells and cellular debris, a viability staining was introduced to ensure probe specificity.[29] Thus, after washing twice with HBSS, cells were incubated in 10 μM Calcein AM solution containing 0.02% Pluronic F-127 and 0.1% DMSO for 45 min at 37 °C. The solution was then removed and washed twice in HBSS before the addition of the HBSS solution containing the SiR probes. All probe solutions were protected from light exposure and contained 0.5% DMSO and various concentrations of BSA depending on the experiment. Incubation with the fluorescent probes was 20 min long, after which a single washing step was introduced with HBSS before imaging. Images of the cells (Calcein: FITC channel, SiR: Cy5 channel) were acquired with a Nikon Eclipse TI2 inverted wide-field fluorescence microscope using a 60× magnification oil immersion objective (Nikon CFI Plan Fluor, 60×, NA = 0.85). For each well, a minimum of 3 images were acquired. For each image, cells were segmented to generate labels on the FITC channel postacquisition using the deep neural network-based Cellpose package in Python 3.9 (model_type: cyto2, diameter: 200, flow_threshold: 0.4).[30] To normalize pixel intensity values across images, for each image, a background value was calculated by taking the average pixel intensity value of the pixels in which no cellular label was present and were negative for the EvoSiR label (triangle thresholding used). For each cell, the skewness of the value distribution and the mean of the Cy5 pixel intensities were calculated. The procedure for evaluating the long-term labeling (72 h) of EvoSiR probes on CCL39 and HCAR cells was similar, with the following modifications: images were retrieved using 10× magnification air objectives (Nikon CFI Plan Fluor 10×, NA = 0.3), in the neural network model, the diameter parameter was set to 30, and only the mean Cy5 pixel intensities per cell object were retrieved.

[3] = Spectrofluorometric fluorescence in PBS and effect of pH; type: physicochemical; conditions: PBS
Method: (§1) Spectrofluorometric measurements were carried out by using the Agilent Cary Eclipse instrument. The voltage of the photomultiplier tube (PMT) was set to 600 for EvoSiR4 and EvoSiR6, and for 500 for SiR (4). Fluorescence of the probes was measured at concentrations ranging from 30 to 3000 nM in PBS containing various amounts of bovine serum albumin (BSA) (Sigma, A7906). Quenching experiments for the calculation of BSA binding were performed by adding a 1:1 molar ratio of tannic acid dissolved in ddH2O (Sigma, 403040) to the solution prior to measuring fluorescence.

[4] = biological target: T2, bovine serum albumin (BSA) (Bos taurus, UniProt P02769); assay: Spectrofluorometric analysis of fluorogenicity upon BSA binding; type: physicochemical
T2 construct: purchased Sigma A7906
T2 sequence (P02769 25-607): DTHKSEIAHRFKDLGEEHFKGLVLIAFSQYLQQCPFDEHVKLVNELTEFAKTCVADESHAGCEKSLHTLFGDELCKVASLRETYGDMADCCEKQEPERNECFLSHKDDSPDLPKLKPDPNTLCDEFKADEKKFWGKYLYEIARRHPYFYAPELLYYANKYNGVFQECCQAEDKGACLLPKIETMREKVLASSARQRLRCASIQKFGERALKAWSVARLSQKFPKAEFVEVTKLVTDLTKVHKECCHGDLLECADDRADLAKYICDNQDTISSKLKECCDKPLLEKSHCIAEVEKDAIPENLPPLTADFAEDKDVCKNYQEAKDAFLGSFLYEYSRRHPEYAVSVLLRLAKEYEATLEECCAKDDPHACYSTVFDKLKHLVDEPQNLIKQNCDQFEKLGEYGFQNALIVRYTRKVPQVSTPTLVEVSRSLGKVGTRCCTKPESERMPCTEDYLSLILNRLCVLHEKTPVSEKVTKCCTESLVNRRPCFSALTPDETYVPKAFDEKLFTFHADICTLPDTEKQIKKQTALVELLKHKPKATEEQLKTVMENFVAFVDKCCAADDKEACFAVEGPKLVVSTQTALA
Method: as §1

[5] = system: hair cells of the neuromasts within the lateral line organ; assay: In vivo labeling of neuromasts in zebrafish larvae; design: species or system zebrafish (Danio rerio); conditions: 4–6 dpf larvae, neuromasts identified with DiAsp
Method: For the neuromast labeling experiments, wild-type 4–6 days post fertilization (dpf) zebrafish larvae were incubated in 200 μL of E3 medium containing different doses of the SiR probes (500–5000 nM), 2.5 μM 4-(4-diethylaminostyryl)-1-methyl-pyridinium-iodid (DiAsp, Sigma, D3418), which specifically labels hair cells in the lateral line in 0.5% DMSO for 30 min (35). Next, washing and anesthesia were achieved by placing the larvae in a 35 mm imaging dish (MolBiTec, Imaging dish 1.5) which contained 500 μL of E3 medium with 168 mg/L MS-222 (Tricaine Mehanesulfonate, Sigma) for 10 min. After removing the solution, fish were side-embedded in the imaging dish using 500 μL of 0.75% low-melting temperature agarose (Sigma, A4018). Wide-field imaging was done using the Zeiss Axio Observer fluorescence microscope (LD A-Plan 10× objective, NA = 0.25), and confocal imaging was done using a Zeiss LSM 800 confocal fluorescence microscope (LD LCI Plan-Apochromat 25× objective, NA = 0.8).

human CaSR [6] = biological target: T1, human CaSR; assay: FLIPR-based functional CaSR calcium assay in HCAR cells; type: cell-based; conditions: HCAR cells
Method: Hamster lung fibroblasts (CCL39, CaSR−) expressing the recombinant human CaSR (HCAR, CaSR+) and nontransected controls were kindly provided by Novartis AG and were kept in standard culturing conditions (37 °C, 5% CO2) in 1/2 DMEM (Roth, 9005.1)—1/2 F-12 (Sigma, N4888–500 mL) media containing 10% FBS. Media for the HCAR cells contained 500 μg/mL Geneticin as a selection antibiotic (Thermo Fisher, 10131035). Upon reaching 90–95% confluence, cells were detached and seeded into 96-well plates (PerkinElmer, 6005182) at a concentration of 35,000 cells per well and were incubated for 24 h before the experiment. For the functional CaSR calcium assay, cells were first washed twice with HBSS medium (Sigma, H6648), and were incubated in HBSS containing 5 μM Fluo-8 AM and 0.1 mM CaCl2 for 30 min at 37 °C. Calcium transients were measured upon addition of 0.5 mM CaCl2 with the FLIPR Tetra high-throughput cellular screening systems using the 470–495 nm LED excitation and 515–575 nm bandpass emission filters. Probe solutions contained 0.5% DMSO and were added to the cells 10 min prior to the measurement. dF/F0 values were calculated as a change in the peak fluorescence value of the transient for the first 200 data points normalized to the background fluorescence of the well. […] Both cells were washed with HBSS medium twice and then incubated for 10 min at 37 °C in HBSS medium containing 0.1% BSA in the presence or absence of 10 μM evocalcet. Upon the removal of media, cells were incubated in various concentrations of EvoSiR4 and EvoSiR6 in HBSS containing 0.1% BSA for 30 min at 37 °C and were subsequently washed 3 times with 0.1% BSA and resuspended in DMSO before the fluorometric measurement. The fluorescence was measured using a Tecan GENios pro microplate reader with the following parameters: λex = 612 nm, λem = 670 nm, gain = 50 AU. Data for the EvoSiR probes and the evocalcet competition is reported as CaSR-specific fluorescence, which was calculated by dividing the absolute fluorescence of the HCAR cells with the absolute fluorescence of the CCL39 cells for each concentration.

[7] = Fluorescence quenching of SiR probes by tannic acid, spectrofluorometer; type: physicochemical
Method: as §1

## Cc1cc(C(=O)NCCCCN)ccc1C1=C2C=CC(=[N+](C)C)C=C2[Si](C)(C)c2cc(N(C)C)ccc21 [SiR (4)]
[1]
  fluorescence lifetime τ: 1.92 ± 0.733 ns
[1]; 94% ethanol, 750 nM, relative to Rhodamine B
  quantum yield Φ: 0.347
[1]; Table 1
  λem: 670
  λex: 650
[1]; absorbance at 150–1350 nM, 1 cm cuvette
  extinction coefficient ε: 7051 M^–1 cm^–1
Human CaSR [2]; 500 nM probe, 0.1% BSA
  fold increase in skewness of pixel intensity distribution, CaSR+ (HCAR) vs CaSR- (CCL39) cells: no significant difference
[3]
  absolute fluorescence in PBS relative to EvoSiR4 and EvoSiR6: 10 times
[4]; 1% BSA compared to PBS
  increase in absolute fluorescence upon addition of 1% BSA: no effect
[4]; BSA 0.01–0.1%
  change in absolute fluorescence in response to BSA: no significant change
[5]
  normalized fluorescence of the neuromasts to the background fluorescence, mean and standard deviation: 1.28 ± 0.41

## C[C@@H](N[C@H]1CCN(c2ccc(CC(=O)NCCCCNC(=O)OC(C)(C)C)cc2)C1)c1cccc2ccccc12 [compound 1]
Human CaSR [6]; response to addition of 0.5 mM CaCl2, no BSA, read-out: EC50, positive allosteric modulation of CaSR activity
  EC50: 0.101 ± 0.006 µM

## [Ca+2].[Cl-].[Cl-] [extracellular calcium, CaCl2, reference compound]
Human CaSR [6]; dF/F0, read-out: EC50 of intracellular calcium release in response to extracellular calcium
  EC50: 252 ± 10 µM

## tannic acid [reference compound]
[7]
  IC50 of quenching the fluorescence of EvoSiR probes and SiR (4): low nanomolar ranges
Human CaSR [2]; 100 nM tannic acid, CaSR+ cells labeled with 500 nM EvoSiR4
  increase in signal-to-noise ratio of EvoSiR4 labeling: 40%
